Results taken from patent US9808444B2 (BioHealthonomics Inc., priority 2012, dated 2017).

How the values were obtained:
migraine attacks [1] = conditions: cited from earlier work
migraine headaches = conditions: one subject, subcutaneous, Table 5 regimen
[2] = tested on: headache / migraine attack; conditions: cited from earlier work
migraine attacks [3] = conditions: subcutaneous, twice weekly, 1 μg (0.1 mL) increasing to 10 μg (1.0 mL) over 12 weeks; cited from earlier work
migraine attacks [4] = conditions: subcutaneous 1-10 ng twice a week vs oral sodium valproate 500 mg daily, cited from earlier work
[5] = doses of 1 to 3 ng twice a week, P<0.0001
[6] = migraine subjects, intravenous, 0.5 mg/kg per minute for 20 min

SMILES: CNCCc1c[nH]cn1 [N^α-methylhistamine]
- adverse side effects (migraine attacks [1]; doses greater than 3 ng): intense headache
- duration of migraine attacks (migraine attacks [1]; [5]): significantly reduced
- frequency of migraine attacks (migraine attacks [1]; [5]): significantly reduced
- intensity of migraine attacks (migraine attacks [1]; [5]): significantly reduced
- need for rescue analgesics (migraine attacks [1]; [5]): significantly reduced

SMILES: NCCc1c[nH]cn1 [histamine, 2-(1H-imidazol-4-yl)ethanamine]
- intensity of migraines (migraine headaches): drastically reduced
- quality of life (migraine headaches): Drastically improved
- side effects associated with the regimen (migraine headaches): no histamine-induced headaches
- frequency of migraines after the dosing regimen (migraine headaches; before the regimen about 3-5 migraines per week): ~1 migraine every 2 months
- side effect after the infusion [2, 6]: delayed migraine attack
- side effect during the infusion [2, 6]: immediate headache
- decrease in length of migraine attacks (migraine attacks [3]): 45%
- decrease in pain intensity (migraine attacks [3]): 51%
- decrease in painkiller use (migraine attacks [3]): 52%
- reduction of headache frequency (migraine attacks [3]): 50%
- MIDAS versus sodium valproate (migraine attacks [4]): No difference
- frequency of attacks versus sodium valproate (migraine attacks [4]): No difference
- analgesic intake versus sodium valproate (migraine attacks [4]; weeks 4, 8, 12, P<0.001): significantly greater reduction
- intensity of migraine attacks versus sodium valproate (migraine attacks [4]; weeks 4, 8, 12, P<0.001): significantly greater reduction

SMILES: COc1ccc(CN(CCN(C)C)c2ccccn2)cc1 [mepyramine]
- effect of pre-treatment on histamine-induced headache and delayed migraine attack ([2]; pre-treatment before intravenous histamine in migraine subjects): abolished
